Experimental data from ChEMBL document CHEMBL4725351, “Cyclic Derivative of Host-Defense Peptide IDR-1018 Improves Proteolytic Stability, Suppresses Inflammation, and Enhances In Vivo Activity” (J Med Chem, 2020).
≈ marks a conversion by molar mass, not a printed value. Calls of active or inactive are those of the source. No cut-off for these calls is given here.

Key:
Pseudomonas aeruginosa [1] = experiment: Antibacterial activity against Pseudomonas aeruginosa PAO1 measured after overnight incubation by microtitre plate based spectrophotometric method; assay type: functional
Staphylococcus aureus [2] = experiment: Antibiofilm activity against methicillin-resistant Staphylococcus aureus USA300 LAC incubated for 24 hrs under shaking condition by turbidometric method; assay type: functional
Acinetobacter baumannii [3] = experiment: Antibiofilm activity against Acinetobacter baumannii 17918 incubated for 24 hrs under shaking condition by turbidometric method; assay type: functional
Pseudomonas aeruginosa [4] = experiment: Antibacterial activity against Pseudomonas aeruginosa PA14 measured after overnight incubation by microtitre plate based spectrophotometric method; assay type: functional
Klebsiella pneumoniae [5] = experiment: Antibiofilm activity against Klebsiella pneumoniae ATTC 13883 incubated for 24 hrs under shaking condition by turbidometric method; assay type: functional
Staphylococcus aureus [6] = experiment: Antibacterial activity against methicillin-resistant Staphylococcus aureus SAP0017 measured after overnight incubation by microtitre plate based spectrophotometric method; assay type: functional
Escherichia coli [7] = experiment: Antibacterial activity against Escherichia coli ATTC 489 measured after overnight incubation by microtitre plate based spectrophotometric method; assay type: functional
Pseudomonas aeruginosa [8] = experiment: Antibiofilm activity against Pseudomonas aeruginosa PA14 incubated for 24 hrs under shaking condition by turbidometric method; assay type: functional
Pseudomonas aeruginosa [9] = experiment: Antibiofilm activity against Pseudomonas aeruginosa PAO1 incubated for 24 hrs under shaking condition by turbidometric method; assay type: functional
Escherichia coli [10] = experiment: Antibiofilm activity against Escherichia coli ATTC 489 incubated for 24 hrs under shaking condition by turbidometric method; assay type: functional
Klebsiella pneumoniae [11] = experiment: Antibacterial activity against Klebsiella pneumoniae ATTC 13883 measured after overnight incubation by microtitre plate based spectrophotometric method; assay type: functional
Acinetobacter baumannii [12] = experiment: Antibacterial activity against Acinetobacter baumannii 5015 measured after overnight incubation by microtitre plate based spectrophotometric method; assay type: functional
Acinetobacter baumannii [13] = experiment: Antibiofilm activity against Acinetobacter baumannii 5015 incubated for 24 hrs under shaking condition by turbidometric method; assay type: functional
Staphylococcus aureus [14] = experiment: Antibacterial activity against methicillin-resistant Staphylococcus aureus USA300 LAC measured after overnight incubation by microtitre plate based spectrophotometric method; assay type: functional
Acinetobacter baumannii [15] = experiment: Antibacterial activity against Acinetobacter baumannii 17918 measured after overnight incubation by microtitre plate based spectrophotometric method; assay type: functional
Staphylococcus aureus [16] = experiment: Antibiofilm activity against methicillin-resistant Staphylococcus aureus SAP0017 incubated for 24 hrs under shaking condition by turbidometric method; assay type: functional
Pseudomonas aeruginosa [17] = experiment: Antibiofilm activity against 24 hrs preformed Pseudomonas aeruginosa PA14 biofilm assessed as reduction in biofilm viability at 100 ug/ml by TTC assay; assay type: functional, organism-based; conditions: dose 100.0 µg/ml
Escherichia coli [18] = experiment: Antibiofilm activity against 24 hrs preformed Escherichia coli ATTC 489 biofilm assessed as reduction in biofilm viability at 100 ug/ml by TTC assay; assay type: functional, organism-based; conditions: dose 100.0 µg/ml
Acinetobacter baumannii [19] = experiment: Antibiofilm activity against 24 hrs preformed Acinetobacter baumannii 17918 biofilm assessed as reduction in biofilm viability at 100 ug/ml by TTC assay; assay type: functional, organism-based; conditions: dose 100.0 µg/ml
Pseudomonas aeruginosa [20] = experiment: Antibiofilm activity against 24 hrs preformed Pseudomonas aeruginosa PAO1 biofilm assessed as reduction in biofilm viability at 100 ug/ml by TTC assay; assay type: functional, organism-based; conditions: dose 100.0 µg/ml
Acinetobacter baumannii [21] = experiment: Antibiofilm activity against 24 hrs preformed Acinetobacter baumannii 5015 biofilm assessed as reduction in biofilm viability at 100 ug/ml by TTC assay; assay type: functional, organism-based; conditions: dose 100.0 µg/ml
Klebsiella pneumoniae [22] = experiment: Antibiofilm activity against 24 hrs preformed Klebsiella pneumoniae ATTC 13883 biofilm assessed as reduction in biofilm viability at 100 ug/ml by TTC assay; assay type: functional, organism-based; conditions: dose 100.0 µg/ml

Compound: CCCCCCCCCCCCCCCC[N+](C)(C)Cc1ccccc1.[Cl-] [CETALKONIUM CHLORIDE]
- MIC (Pseudomonas aeruginosa [1]): > 126 µM
- MBEC (Staphylococcus aureus [2]): 20.1 µM
- MBEC (Acinetobacter baumannii [3]): 40.3 µM
- MIC (Pseudomonas aeruginosa [4]): > 126 µM
- MBEC (Klebsiella pneumoniae [5]): 63.1 µM
- MIC (Staphylococcus aureus [6]): 3.7 µM
- MIC (Escherichia coli [7]): 7.8 µM
- MBEC (Pseudomonas aeruginosa [8]): >126 µM
- MBEC (Pseudomonas aeruginosa [9]): >126 µM
- MBEC (Escherichia coli [10]): 40.3 µM
- MIC (Klebsiella pneumoniae [11]): 7.8 µM
- MIC (Acinetobacter baumannii [12]): 7.8 µM
- MBEC (Acinetobacter baumannii [13]): 40.3 µM
- MIC (Staphylococcus aureus [14]): 3.7 µM
- MIC (Acinetobacter baumannii [15]): 7.8 µM
- MBEC (Staphylococcus aureus [16]): 15.1 µM

Compound: CN[C@H](CC(C)C)C(=O)N[C@H]1C(=O)N[C@@H](CC(N)=O)C(=O)N[C@H]2C(=O)N[C@H]3C(=O)N[C@H](C(=O)N[C@H](C(=O)O)c4cc(O)cc(O)c4-c4cc3ccc4O)[C@H](O)c3ccc(c(Cl)c3)Oc3cc2cc(c3O[C@@H]2O[C@H](CO)[C@@H](O)[C@H](O)[C@H]2O[C@H]2C[C@](C)(N)[C@H](O)[C@H](C)O2)Oc2ccc(cc2Cl)[C@H]1O [VANCOMYCIN]
- MIC (Pseudomonas aeruginosa [1]): > 68 µM
- MBEC (Staphylococcus aureus [2]): >68 µM
- MBEC (Acinetobacter baumannii [3]): >68 µM
- MIC (Pseudomonas aeruginosa [4]): > 68 µM
- MBEC (Klebsiella pneumoniae [5]): >68 µM
- MIC (Staphylococcus aureus [6]): 0.4 µM (≈ 0.58 µg/mL)
- MIC (Escherichia coli [7]): > 68 µM
- MBEC (Pseudomonas aeruginosa [8]): >68 µM
- MBEC (Pseudomonas aeruginosa [9]): >68 µM
- MBEC (Escherichia coli [10]): >68 µM
- MIC (Klebsiella pneumoniae [11]): > 68 µM
- MIC (Acinetobacter baumannii [12]): > 68 µM
- MBEC (Acinetobacter baumannii [13]): >68 µM
- MIC (Staphylococcus aureus [14]): 0.4 µM (≈ 0.58 µg/mL)
- MIC (Acinetobacter baumannii [15]): > 68 µM
- MBEC (Staphylococcus aureus [16]): >68 µM

Compound: COLISTIN
- MIC (Pseudomonas aeruginosa [1]): 2.5 µM
- MBEC (Staphylococcus aureus [2]): > 86 µM
- MBEC (Acinetobacter baumannii [3]): > 86 µM
- MIC (Pseudomonas aeruginosa [4]): 2.5 µM
- MBEC (Klebsiella pneumoniae [5]): > 86 µM
- MIC (Staphylococcus aureus [6]): > 86 µM
- MIC (Escherichia coli [7]): 1.2 µM
- Activity (Pseudomonas aeruginosa [17]): inactive
- MBEC (Pseudomonas aeruginosa [8]): > 86 µM
- MBEC (Pseudomonas aeruginosa [9]): > 86 µM
- Activity (Escherichia coli [18]): inactive
- MBEC (Escherichia coli [10]): > 86 µM
- Activity (Acinetobacter baumannii [19]): inactive
- MIC (Klebsiella pneumoniae [11]): 1.2 µM
- Activity (Pseudomonas aeruginosa [20]): inactive
- MIC (Acinetobacter baumannii [12]): 1.2 µM
- Activity (Acinetobacter baumannii [21]): inactive
- MBEC (Acinetobacter baumannii [13]): > 86 µM
- MIC (Staphylococcus aureus [14]): > 86 µM
- Activity (Klebsiella pneumoniae [22]): inactive
- MIC (Acinetobacter baumannii [15]): 1.2 µM
- MBEC (Staphylococcus aureus [16]): > 86 µM
